Laboratory results: article PMC12865225 (Clinical and Translational Science, 2026)

Tests used:
OATP1B1 = target: T1, OATP1B1 (Homo sapiens, UniProt Q9Y6L6); assay: Determination of inhibition constant Ki for OATP1B1, rosuvastatin; format: cell-based; details: rosuvastatin 1-80 µM, 30 min preincubation, 2 min; read-out: Ki-value for the competitive inhibition of OATP1B1
T1 construct: expressed in transfected cells; host or cells: HEK293 (recombinant baculovirus-mediated transduction)
T1 sequence (Q9Y6L6 1-691): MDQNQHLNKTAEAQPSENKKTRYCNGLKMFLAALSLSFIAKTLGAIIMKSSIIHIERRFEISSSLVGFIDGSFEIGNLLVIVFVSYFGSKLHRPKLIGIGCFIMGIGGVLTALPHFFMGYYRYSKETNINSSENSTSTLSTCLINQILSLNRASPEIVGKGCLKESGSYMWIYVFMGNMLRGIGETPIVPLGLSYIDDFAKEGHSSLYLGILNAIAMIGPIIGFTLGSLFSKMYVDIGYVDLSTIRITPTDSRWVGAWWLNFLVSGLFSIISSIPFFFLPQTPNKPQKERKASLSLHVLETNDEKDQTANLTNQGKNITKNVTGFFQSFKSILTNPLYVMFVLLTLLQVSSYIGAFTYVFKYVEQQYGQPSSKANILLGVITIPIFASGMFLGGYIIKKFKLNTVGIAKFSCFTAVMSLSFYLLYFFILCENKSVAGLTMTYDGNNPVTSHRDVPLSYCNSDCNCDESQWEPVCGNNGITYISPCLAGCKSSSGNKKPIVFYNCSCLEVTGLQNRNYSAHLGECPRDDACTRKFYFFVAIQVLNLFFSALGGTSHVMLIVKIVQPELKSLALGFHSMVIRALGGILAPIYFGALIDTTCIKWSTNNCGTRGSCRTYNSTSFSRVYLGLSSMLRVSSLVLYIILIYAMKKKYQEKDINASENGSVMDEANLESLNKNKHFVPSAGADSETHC
Method: were removed and 300 µl of warm TP-buffer was added to each well and incubated for 5 min.
The washing was repeated twice , after which the transport assays were conducted in the presence of 1 µM 2′,7′ -dichlorofluorescein for 5 min. The wells that were pre -incubated with […]
incubated with the vehicle contained three different inhibitor concentrations. After the transport assays, the samples were treated and analyzed similarly as described in the main text and above. The uptake into vehicle control samples w as set to a value of 100% and all the inhibitor samples are presented relative to the vehicle control samples. […]
determined in a single experiment in triplicate samples by using 1 µM, 4 µM and 20 µM […]
µM, 2.5 µM, 10 µM, 20 µM, 40 µM and 80 µM). The assays included a 30 min preincubation step with the inhibitor , and the transport assays were conducted for 2 min . Further details are reported in the methods of the main text. The Ki value was calculated by fitting the com petitive inhibition model to the data with the nonlinear least squares method (nls) in R programming language environment (R version 4.3.1) :
Uptake refers to the rate of uptake in OATP1B1-expressing cells, after subtracting the uptake in control cells , Vmax is the maximum rate of transport, K m is the Michaelis constant, S is the […]
Efflux transport assays in HEK293 membrane vesicles […]

OAT3 = target: T2, OAT3 (Homo sapiens, UniProt Q8TCC7); assay: Uptake transport assay in OAT3-expressing HEK293 cells; details: for transport by OAT3: 2 and 50 μM, 10 min; for Vmax (pmol/106 cells/min) OAT3: uptake, 2 min
T2 sequence (Q8TCC7 1-542): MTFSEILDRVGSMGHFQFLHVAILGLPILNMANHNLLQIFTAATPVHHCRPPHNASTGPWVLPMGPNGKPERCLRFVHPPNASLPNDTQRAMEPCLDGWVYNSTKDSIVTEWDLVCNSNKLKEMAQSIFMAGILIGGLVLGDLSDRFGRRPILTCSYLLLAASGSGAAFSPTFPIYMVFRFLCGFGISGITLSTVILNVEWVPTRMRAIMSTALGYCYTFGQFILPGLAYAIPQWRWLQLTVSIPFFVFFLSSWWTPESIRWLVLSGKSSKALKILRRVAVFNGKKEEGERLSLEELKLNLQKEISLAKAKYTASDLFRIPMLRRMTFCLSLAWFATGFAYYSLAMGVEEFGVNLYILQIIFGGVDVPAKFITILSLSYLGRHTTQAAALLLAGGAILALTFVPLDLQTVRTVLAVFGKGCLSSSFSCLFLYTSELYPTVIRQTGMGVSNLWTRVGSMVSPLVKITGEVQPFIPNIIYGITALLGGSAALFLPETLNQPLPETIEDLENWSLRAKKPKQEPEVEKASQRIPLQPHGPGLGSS
Method: The human transporters OATP1B1, OATP1B3, OATP2B1, and OAT1‐OAT4 and a negative control protein (enhanced yellow fluorescent protein, eYFP) were transiently expressed in human embryonic kidney 293 (HEK293) cells by recombinant baculovirus‐mediated transduction. Baculoviruses carrying human genes for the transporters were prepared as reported previously. HEK293 cells were cultured in DMEM containing 10% fetal bovine serum at 37°C and 5% CO2 and passaged two to three times per week. For the transport studies, 0.05 × 10^6 cells for 48‐well plates (OATPs) or 0.06 × 10^6 cells for 24‐well plates (OATs) were seeded onto cell‐culture treated well plates coated with poly‐D‐lysine. After 1 day, cells were transduced to produce recombinant proteins by changing media to DMEM containing 30 μL (48‐well plates) or 60 μL (24‐well plates) of recombinant baculovirus and 3 mM (OATs) or 5 mM (OATPs) sodium butyrate in a total media volume of 500 μL. The cells were cultured for a further 2 days before the transport assays.
For the transport studies, media were removed and cells were washed once with warm transport uptake buffer (TP‐buffer—pH 7.4 HBSS with 25 mM HEPES and 4 mM sodium bicarbonate). Each experiment included triplicate (OATP) or duplicate (OAT) samples for every test condition. The uptake was started by removing liquid from wells and applying warm TP‐buffer (200 μL for 24‐well plates or 125 μL for 48‐well plates) containing a test compound to cells. Transport assays were terminated after a pre‐specified incubation time (reported in figure legends) by removing substrate solution and washing cells three times with cold TP‐buffer (300 μL for 48‐well plates and 400 μL for 24‐well plates). For the liquid chromatography mass spectrometry (LC–MS) analysis, compounds were extracted from cells with 125 μL (48‐well plates) or 250 μL (24‐well plates) of an ultrapure‐water solution containing 75% methanol and 0.1% formic acid, shaking at 250 RPM for 30 min. […] Samples were transferred to well plates, centrifuged at 3000 g for 30 min, and transferred to a new well plate for the analysis.
Equation (2) (the Michaelis–Menten equation) was fit to the transport kinetic assay data. […] (2) Uptake=Vmax×S/Km+S

[1] = cited from earlier work
CYP3A4 = details: model input; cited from earlier work

| Ki (OATP1B1) [µM] | transport by OAT3 (OAT3) | Vmax (pmol/106 cells/min) OAT3 (OAT3) [pmol/106 cells/min] | SMILES | decrease of renal clearance by probenecid [1] [fold] | increase of C max and AUC by cyclosporine and probenecid [1] [fold] | CYP3A4 Indmax (CYP3A4) |
| --- | --- | --- | --- | --- | --- | --- |
| 3.65 | transported | 296 | Cc1onc(-c2c(Cl)cccc2Cl)c1C(=O)N[C@@H]1C(=O)N2[C@@H]1SC(C)(C)[C@@H]2C(=O)O [Dicloxacillin] | 4 | < 2 | – |
| – | transported | 277 | Cc1onc(-c2c(F)cccc2Cl)c1C(=O)N[C@@H]1C(=O)N2[C@@H]1SC(C)(C)[C@@H]2C(=O)O [Flucloxacillin] | – | – | 4.6 |
